The values that follow come from US4650661A, “Enzyme inhibitors” (priority 1982, dated 1987).

Like-named read-outs stand apart in the source and are kept apart here. Non-standard residues stand in square brackets, D forms with d. Residues, ends and D or L forms follow the SMILES beside them. *: point of attachment. Sta = CC(C)C[C@H](N)[C@@H](O)CC(=O)O; Isovaleryl = CC(C)CC(=O)*

The target in one assay is T1, human renin (Homo sapiens, UniProt P00797).
T1 sequence (P00797 67-406): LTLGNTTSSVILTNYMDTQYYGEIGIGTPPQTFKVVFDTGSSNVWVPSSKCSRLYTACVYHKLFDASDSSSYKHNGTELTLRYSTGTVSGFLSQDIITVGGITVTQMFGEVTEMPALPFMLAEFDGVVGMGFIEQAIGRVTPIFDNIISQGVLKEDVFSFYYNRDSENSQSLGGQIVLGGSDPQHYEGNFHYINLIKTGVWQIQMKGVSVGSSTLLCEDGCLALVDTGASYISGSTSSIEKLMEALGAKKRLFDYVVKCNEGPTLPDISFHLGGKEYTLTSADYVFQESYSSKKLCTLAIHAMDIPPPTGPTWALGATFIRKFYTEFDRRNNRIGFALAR
As to the kind of experiment: renin inhibition, methods of published European specification. It counts as biochemical. The text has this: (§1) This compound is the subject of Example 1 below.

Another assay deals with baboon renin. In words: renin inhibition, baboon renin. It counts as biochemical. The conditions noted are these: preliminary results, read-out: IC50 against baboon renin (preliminary results).
Excerpt: as §1
The following are the fully detailed examples referred to earlier. The activity of H-176 (Example I) has already been given.

In the next assay the test system is acid proteases. Conditions: cited from earlier work.

Consider H-HPFH[Sta]VIH-OH [Example H-176], for which, on human renin (read-out: IC50 against human renin), the IC50 was determined as 16 nM. For H-PHPFH[Sta]VIHK-OH [Example H-189], the concentration for half-maximal inhibition (IC50) worked out at 9 nM on human renin (preliminary results, read-out: IC50 against human renin (preliminary results)) and 12 nM with baboon renin. Take `CC(C)CC(=O)N[C@H](C(=O)N[C@H](C(=O)N[C@@H](CC(C)C)[C@@H](O)CC(=O)N[C@@H](C)C(=O)N[C@@H](CC(C)C)[C@@H](O)CC(=O)O)C(C)C)C(C)C` [pepstatin, iso-valeryl-L-valyl-L-valyl-S,S,-statyl-L-alanyl-S,S-statine] (Isovaleryl-VV[Sta]A[Sta]-OH): in the assay with acid proteases, the “inhibition of acid proteases (pepsin, cathepsin D, chymosin, renin)” value is “inhibits acid proteases in general”.
